Data taken from PMC12647645, “Structural interactions of BWC0977 with Klebsiella pneumoniae topoisomerase IV and biochemical basis of its broad-spectrum activity” (Communications Biology, 2025).
In brackets after ≈: the same amount, converted by molar mass. Several values for one entry are separate records, joined by “and”; a condition that tells them apart may be missing. Equal entries are not always repeated.

How the values were obtained:
A. baumannii = tested on: A. baumannii; set-up: method as in ref 6 (Hameed P et al., 2024); details: ref 6 (Hameed P et al., 2024); cited from earlier work
[1] = molecular target: S. aureus topoisomerase IV (Staphylococcus aureus, UniProt P0C1S7+P0C1U9); assay: biochemical; details: source data Fig 2C; for Topo IV decatenation inhibition response: S. aureus topo IV
Method: (§1) Assays with P. aeruginosa topoisomerase IV (3 nM) were conducted in a similar buffer but with 50 mM HEPES-KOH (pH 7.9), 100 mM potassium glutamate, 6 mM magnesium acetate, 6 mM DTT, 1 mM ATP, 2 mM spermidine, and 50 μg/mL albumin. For S. aureus topoisomerase IV assay, the reactions contained 4 nM enzyme in an assay buffer composed of 50 mM Tris-HCl (pH 7.5), 5 mM MgCl₂, 5 mM DTT, 1.5 mM ATP, 350 mM potassium glutamate, and 0.05 mg/mL albumin. The procedures followed were consistent with those used in the supercoiling assays. Decatenated minicircles were resolved on 0.8% agarose gels, while the kDNA substrate remained in the wells. Gels were stained with 0.8 μg/mL ethidium bromide solution for 10 min, followed by destaining. DNA bands were visualized using a gel documentation system, and compound inhibition analysis was carried out using the same procedures described for the supercoiling assays.

A. baumannii ATCC 19606 = assay: In vitro spontaneous resistance frequency; format: cell-based; details: colonies selected at 4× MIC of the same compound
Method: (§2) Spontaneous resistance frequencies to BWC0977 were evaluated in E. coli ATCC 25922, P. aeruginosa ATCC 27853, and A. baumannii ATCC 19606. Mid-logarithmic phase cultures (~10^9 CFU/mL) were plated onto Luria-Bertani agar containing BWC0977 at 4×, 8×, and 16× the respective MICs. Plates were incubated at 37 °C for 24–36 h, and resistance frequencies were estimated by counting colony-forming units (CFUs) on the drug-containing plates. MICs of the isolated colonies were determined, and the gyrA, gyrB, parC, and parE genes were sequenced to assess for target-site mutations.

E. coli ATCC 25922 = assay: In vitro spontaneous resistance frequency; format: cell-based; details: 4× MIC
Method: as §2

K. pneumoniae = details: ref 6 (Hameed P et al., 2024); cited from earlier work
P. aeruginosa = tested on: P. aeruginosa; set-up: method as in ref 6 (Hameed P et al., 2024); details: ref 6 (Hameed P et al., 2024); cited from earlier work
E. coli topoisomerase IV = molecular target: T1, E. coli topoisomerase IV (Escherichia coli, UniProt P0AFI2+P20083); assay: biochemical; format: biochemical; details: E. coli topo IV, source data Fig 2A
T1 construct: purchased Inspiralis
T1 sequence (P20083 whole entry): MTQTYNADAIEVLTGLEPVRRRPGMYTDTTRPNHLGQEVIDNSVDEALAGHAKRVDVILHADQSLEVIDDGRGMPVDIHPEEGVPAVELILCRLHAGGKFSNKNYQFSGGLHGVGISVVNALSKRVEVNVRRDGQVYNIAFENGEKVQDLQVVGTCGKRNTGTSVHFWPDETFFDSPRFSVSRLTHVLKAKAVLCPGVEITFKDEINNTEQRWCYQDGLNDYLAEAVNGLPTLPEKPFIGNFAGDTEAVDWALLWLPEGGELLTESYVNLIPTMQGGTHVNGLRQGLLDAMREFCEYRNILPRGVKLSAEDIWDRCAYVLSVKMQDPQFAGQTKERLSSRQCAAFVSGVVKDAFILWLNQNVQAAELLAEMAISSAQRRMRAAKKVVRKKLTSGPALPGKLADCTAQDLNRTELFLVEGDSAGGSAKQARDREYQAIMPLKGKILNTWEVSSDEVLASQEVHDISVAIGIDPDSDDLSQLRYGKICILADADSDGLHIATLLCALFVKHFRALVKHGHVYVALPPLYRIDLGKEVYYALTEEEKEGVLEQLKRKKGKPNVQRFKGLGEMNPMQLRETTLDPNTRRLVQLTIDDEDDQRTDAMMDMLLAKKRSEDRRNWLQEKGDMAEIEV
T1 sequence (P0AFI2 whole entry): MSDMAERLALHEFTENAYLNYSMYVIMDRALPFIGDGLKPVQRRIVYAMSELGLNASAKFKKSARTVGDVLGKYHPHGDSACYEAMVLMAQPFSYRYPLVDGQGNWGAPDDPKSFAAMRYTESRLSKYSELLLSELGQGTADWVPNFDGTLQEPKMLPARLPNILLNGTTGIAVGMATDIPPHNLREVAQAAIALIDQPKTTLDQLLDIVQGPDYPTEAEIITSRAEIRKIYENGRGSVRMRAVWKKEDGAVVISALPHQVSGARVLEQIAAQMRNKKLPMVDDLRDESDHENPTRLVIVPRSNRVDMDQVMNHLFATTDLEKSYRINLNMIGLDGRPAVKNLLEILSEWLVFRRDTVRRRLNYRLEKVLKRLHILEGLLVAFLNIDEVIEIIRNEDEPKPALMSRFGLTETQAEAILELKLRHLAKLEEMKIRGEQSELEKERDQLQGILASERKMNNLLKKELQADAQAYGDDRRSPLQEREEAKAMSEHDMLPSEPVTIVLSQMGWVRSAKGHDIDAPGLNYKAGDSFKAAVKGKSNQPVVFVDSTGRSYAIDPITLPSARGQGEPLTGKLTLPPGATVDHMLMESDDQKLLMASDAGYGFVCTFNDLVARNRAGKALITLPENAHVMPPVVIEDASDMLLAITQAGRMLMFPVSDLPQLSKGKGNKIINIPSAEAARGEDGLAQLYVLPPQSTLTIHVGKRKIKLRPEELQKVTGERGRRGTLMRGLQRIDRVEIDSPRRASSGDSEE

[2] = molecular target: P. aeruginosa topoisomerase IV (Pseudomonas aeruginosa, UniProt Q9HUJ8+Q9HUK1); assay: Topoisomerase IV decatenation assay, P. aeruginosa; format: biochemical; details: for Topo IV decatenation inhibition response: P. aeruginosa topo IV
Method: as §1, with “Topoisomerase IV decatenation reactions were performed using 2.5 nM E. coli enzyme and 60 ng kinetoplast DNA (kDNA) in an assay buffer containing 50 mM HEPES-KOH (pH 7.6), 100 mM potassium glutamate, 10 mM magnesium acetate, 10 mM DTT, 1 mM ATP, and 50 μg/mL albumin. Assays” for “Assays”

[3] = molecular target: K. pneumoniae fusion-truncated topoisomerase IV (ParE30-(Glu-Ser)-ParC55) (Klebsiella pneumoniae); assay: crystal structure; ternary complex of ParEC core dimer, 26-bp DNA duplex and BWC0977 (23 uM ParEC core: 28 uM dsDNA: 200 uM BWC0977); sitting-drop vapor diffusion at 20 °C, 17% PEG 3350, 0.1 M sodium formate, 100 mM Bis-Tris propane pH 8.5; 3.05 Å
[4] = molecular target: ParEC core (ParE-ES-ParC fusion, topoisomerase IV) (Klebsiella pneumoniae, UniProt A6TE19 400-631+=ES+A6TE12:1-488, internal_change); assay: X-ray crystallography (3.05 Å); BWC0977 (one molecule intercalated between DNA bases +2 and +3); Crystallization conditions not in material; protein in 20 mM Tris-HCl pH 7.5, 100 mM NaCl, 2 mM TCEP (6 mg/mL); DNA in nuclease-free water; details: protein: recombinant; tags: C-terminal His6; chain copies: 2; blunt; self-complementary, 2 copies of the strand

O=C(O)c1cn(C2CC2)c2cc(N3CCNCC3)c(F)cc2c1=O [Ciprofloxacin, reference compound]
MIC90 against diverse global isolates (A. baumannii): > 32 µg/mL | Topo IV decatenation inhibition response ([1]; compound 0.823 μM, 0.823 µM): 25.54 | Topo IV decatenation inhibition response ([1]; compound 2.469 μM, 2.469 µM): 28.07 | Topo IV decatenation inhibition response ([1]; compound 7.407 μM, 7.407 µM): 38.66 | Topo IV decatenation inhibition response ([1]; compound 22.222 μM, 22.222 µM): 96.26 | Topo IV decatenation inhibition response ([1]; compound 66.67 μM, 66.67 µM): 92.59 | Topo IV decatenation inhibition response ([1]; compound 200 μM, 200 µM): 98.71 | inhibition at 0.823 µM ([1]; read-out: Topo IV decatenation inhibition response, S. aureus topo IV, compound 0.823 μM): 21.1% | inhibition at 2.469 µM ([1]; read-out: Topo IV decatenation inhibition response, S. aureus topo IV, compound 2.469 μM): 31.3% | inhibition at 7.407 µM ([1]; read-out: Topo IV decatenation inhibition response, S. aureus topo IV, compound 7.407 μM): 27.1% | inhibition at 22.222 µM ([1]; read-out: Topo IV decatenation inhibition response, S. aureus topo IV, compound 22.222 μM): 99.1% | inhibition at 66.67 µM ([1]; read-out: Topo IV decatenation inhibition response, S. aureus topo IV, compound 66.67 μM): 97.3% | inhibition at 200 µM ([1]; read-out: Topo IV decatenation inhibition response, S. aureus topo IV, compound 200 μM): 99% | MIC increase of resistant colonies (A. baumannii ATCC 19606): 4- to 32 fold | resistance frequency (E. coli ATCC 25922): 5 × 10^−9 | MIC90 against diverse global isolates (K. pneumoniae): > 32 µg/mL | MIC90 against diverse global isolates (P. aeruginosa): 16 µg/mL (≈ 48.3 µM) | Topo IV decatenation inhibition response (E. coli topoisomerase IV; compound 2.34375 μM, 2.34375 µM): 0 | Topo IV decatenation inhibition response (E. coli topoisomerase IV; compound 4.6875 μM, 4.6875 µM): 17.91 and 12.76 | inhibition at 4.6875 µM (E. coli topoisomerase IV; compound 4.6875 μM, read-out: Topo IV decatenation inhibition response): 12.2% | Topo IV decatenation inhibition response (E. coli topoisomerase IV; compound 9.375 μM, 9.375 µM): 51.63 and 50.29 | inhibition at 9.375 µM (E. coli topoisomerase IV; compound 9.375 μM, read-out: Topo IV decatenation inhibition response): 43.7% | Topo IV decatenation inhibition response (E. coli topoisomerase IV; compound 18.75 μM, 18.75 µM): 65.07 and 61.86 | inhibition at 18.75 µM (E. coli topoisomerase IV; compound 18.75 μM, read-out: Topo IV decatenation inhibition response): 76.9% | Topo IV decatenation inhibition response (E. coli topoisomerase IV; compound 37.5 μM, 37.5 µM): 82.71 and 68.2 and 60.49 | Topo IV decatenation inhibition response (E. coli topoisomerase IV; compound 75 μM, 75 µM): 75.94 and 67.64 | inhibition at 75 µM (E. coli topoisomerase IV; compound 75 μM, read-out: Topo IV decatenation inhibition response): 84.2% | Topo IV decatenation inhibition response (E. coli topoisomerase IV; compound 150 μM, 150 µM): 82.92 and 70.66 and 58.85 | IC50 [2]: 31.2 µM | Topo IV decatenation inhibition response ([2]; compound 0.293 μM, source data Fig 2B, 0.293 µM): 3.42 | Topo IV decatenation inhibition response ([2]; compound 9.375 μM, source data Fig 2B, 9.375 µM): 6.96 | Topo IV decatenation inhibition response ([2]; compound 37.5 μM, source data Fig 2B, 37.5 µM): 41.68 and 65.61 | Topo IV decatenation inhibition response ([2]; compound 75 μM, source data Fig 2B, 75 µM): 53.28 and 77.23 | Topo IV decatenation inhibition response ([2]; compound 150 μM, source data Fig 2B, 150 µM): 73.28 | inhibition at 0.293 µM ([2]; read-out: Topo IV decatenation inhibition response, P. aeruginosa topo IV, compound 0.293 μM, source data Fig 2B): 3.54% | inhibition at 9.375 µM ([2]; read-out: Topo IV decatenation inhibition response, P. aeruginosa topo IV, compound 9.375 μM, source data Fig 2B): 4.24% | inhibition at 150 µM ([2]; read-out: Topo IV decatenation inhibition response, P. aeruginosa topo IV, compound 150 μM, source data Fig 2B): 58.3%

K. pneumoniae fusion-truncated topoisomerase IV (ParE30-(Glu-Ser)-ParC55) (enzyme)
stoichiometry N [3]: 2

B1: 26-bp palindromic DNA homoduplex (dsDNA)
DNA 1: TTACGTTGTATGATCATACAACGTAA
DNA 2: TTACGTTGTATGATCATACAACGTAA
binding result [4]: binds
